# According to patent publication US8193246B2, “Lipids and lipid assemblies comprising transfection enhancer elements” (Marina Biotech, Inc., priority 2006, dated 2012):
# Experiments:
# HeLa-Cells [1] = assay: In vitro transfection with liposomes encapsulating carboxyfluorescein, fluorescence microscopy (Example 5); assay type: cell-based; conditions: 0.5 mM CF/well, FIG. 7-11
# Method: HeLa-Cells were obtained from DSMZ (German Collection of Micro Organism and Cell Cultures) and maintained in DMEM. Media were purchased from Gibco-Invitrogen and supplemented with 10% FCS at 37° C. under 5% CO2. The cells were plated at a density of 2×10^4 cells/ml and cultivated in 100 μl medium. After 16 h the media were replaced with Opti-MEM I (Gibco) containing liposomes (L1-L24) with a total amount of 50 to 200 ng Cy3-labelled oligonucleotides or 0.5 mM CF/well. Cell culture dishes were centrifuged for 1 h at 450 g at 37° C., followed by an incubation of 3 h hours at 37° C. under 5% CO2. The transfection mixture was replaced by the above mentioned medium and cells were incubated for further 24-48 h hours. Transfection efficiency and cellular distribution was determined after 4 or 24 hours by light and fluorescence microscopy using objectives with 10× or 40× magnification (Axionvert S 100, Carl Zeiss Inc.).
# HeLa-Cells [2] = assay: In vitro transfection with liposomes encapsulating carboxyfluorescein (Example 11); assay type: cell-based; conditions: 0.05 mM CF/well, 4 hours, FIG. 17, 18
# Method: HeLa-Cells were obtained from DSMZ (German Collection of Micro Organism and Cell Cultures) and maintained in DMEM. Media were purchased from Gibco-Invitrogen and supplemented with 10% FCS at 37° C. under 5% CO2. The cells were plated at a density of 4×10^4 cells/ml and cultivated in 100 μl medium. After 16 h the media were replaced with Opti-MEM I (Gibco) containing liposomes (L-46-L-49) with a total amount of 0.05 mM CF/well. Cell culture dishes were incubated for 4 hours at 37° C. under 5% CO2. Transfection efficiency and cellular distribution was determined after 4 hours by fluorescence microscopy with an exposure time of 5 seconds and using the 10/100 fold objective (Axionvert S 100, Carl Zeiss Inc.). Before imaging cells were washed several times (5×) with PBS pH7.4 and analysed directly (incubation time 20 to 30 sec.) in 50 μl PBS pH7.4. As control free CF (0.1 mM) in PBS was added to the cells.
substance,measurement,setting,value
carboxyfluorescein [free carboxyfluorescein],fluorescence signal of carboxyfluorescein in cytosol or nucleus,HeLa-Cells [1],do not show any fluorescence signals
same,fluorescence signal of carboxyfluorescein,HeLa-Cells [2],no fluorescence signal was observed
